# According to patent US7704995B2 (Exelixis, Inc., priority 2003, dated 2010):
# Molecular target: T1, Chk1 (Homo sapiens, UniProt O14757)
# T1 construct: purchased Upstate Biotechnology
# T1 sequence (O14757 1-476): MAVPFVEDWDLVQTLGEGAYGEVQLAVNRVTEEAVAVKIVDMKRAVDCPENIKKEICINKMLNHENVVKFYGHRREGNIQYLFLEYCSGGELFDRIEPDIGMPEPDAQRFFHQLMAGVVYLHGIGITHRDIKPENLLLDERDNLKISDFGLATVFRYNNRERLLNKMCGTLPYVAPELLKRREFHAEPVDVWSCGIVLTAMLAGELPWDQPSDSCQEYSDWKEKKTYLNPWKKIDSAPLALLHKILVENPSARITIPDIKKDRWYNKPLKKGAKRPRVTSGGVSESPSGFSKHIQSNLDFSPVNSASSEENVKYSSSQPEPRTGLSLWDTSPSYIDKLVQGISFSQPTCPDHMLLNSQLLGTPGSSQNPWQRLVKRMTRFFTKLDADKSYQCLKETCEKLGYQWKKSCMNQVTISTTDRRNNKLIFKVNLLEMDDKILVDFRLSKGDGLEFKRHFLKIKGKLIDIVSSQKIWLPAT
# Assay: Chk1 kinase assay: incorporation of γ-33P ATP into immobilized myelin basic protein
# Format: biochemical
# Conditions: Table 11; Chk1 only; read-out: Chk1 IC50
# Procedure, shortened: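 Read-out is scintillation counting of 33P incorporated into plate-bound myelin basic protein. Chk1 runs at 10 nM enzyme with 10 μM ATP, Chk2 at 20 nM with 30 μM ATP, each for 1 hour at room temperature. Duplicate points; IC50 taken as 50% activity reduction, Ki computed from IC50.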
row,Structure (SMILES),IC50
1,"C[C@@H](NC(=O)c1cccc(-c2cnc(N)c(C(=O)N[C@H]3CCN(C(=O)OC(C)(C)C)C3)n2)c1)c1ccccc1 [Example 710, 1,1-dimethylethyl (3S)-3-[({3-amino-6-[3-({[(1R)-1-phenylethyl]amino}carbonyl)phenyl]pyrazin-2-yl}carbonyl)amino]pyrrolidine-1-carboxylate]",≥ 10000 nM
2,"CC(C)(C)OC(=O)N1CC[C@H](NC(=O)c2nc(-c3cccc(C(=O)N4CCc5ccccc5C4)c3)cnc2N)C1 [Example 711, 1,1-dimethylethyl (3S)-3-[({3-amino-6-[3-(3,4-dihydroisoquinolin-2(1H)-ylcarbonyl)phenyl]pyrazin-2-yl}carbonyl)amino]pyrrolidine-1-carboxylate]",≥ 10000 nM
3,"CC(C)(C)OC(=O)N1CC[C@H](NC(=O)c2nc(-c3cccc(C(=O)NCCc4ccccc4)c3)cnc2N)C1 [Example 712, 1,1-dimethylethyl (3S)-3-({[3-amino-6-(3-{[(2-phenylethyl)amino]carbonyl}phenyl)pyrazin-2-yl]carbonyl}amino)pyrrolidine-1-carboxylate]",≥ 10000 nM
4,"C[C@H](NC(=O)c1cccc(-c2cnc(N)c(C(=O)N[C@H]3CCN(C(=O)OC(C)(C)C)C3)n2)c1)c1ccccc1 [Example 713, 1,1-dimethylethyl (3S)-3-[({3-amino-6-[3-({[(1S)-1-phenylethyl]amino}carbonyl)phenyl]pyrazin-2-yl}carbonyl)amino]pyrrolidine-1-carboxylate]",1000 to 10000 nM
5,"Nc1ncc(-c2cccc(C(=O)N3CCc4ccccc4C3)c2)nc1C(=O)N[C@H]1CCNC1 [Example 714, 3-amino-6-[3-(3,4-dihydroisoquinolin-2(1H)-ylcarbonyl)phenyl]-N-[(3S)-pyrrolidin-3-yl]pyrazine-2-carboxamide]",50 to 1000 nM
6,"Nc1ncc(-c2cccc(C(=O)NCCc3ccccc3)c2)nc1C(=O)N[C@H]1CCNC1 [Example 715, 3-amino-6-(3-{[(2-phenylethyl)amino]carbonyl}phenyl)-N-[(3S)-pyrrolidin-3-yl]pyrazine-2-carboxamide]",50 to 1000 nM
7,"C[C@H](NC(=O)c1cccc(-c2cnc(N)c(C(=O)N[C@H]3CCNC3)n2)c1)c1ccccc1 [Example 717, 3-amino-6-[3-({[(1S)-1-phenylethyl]amino}carbonyl)phenyl]-N-[(3S)-pyrrolidin-3-yl]pyrazine-2-carboxamide]",50 to 1000 nM
8,"CCNNC(=N)c1nc(-c2cccc(C(=O)NC3CCc4ccccc43)c2)cnc1N (stereo not drawn) [Example 718, 3-{5-amino-6-[(2-ethylhydrazino)(imino)methyl]pyrazin-2-yl}-N-(2,3-dihydro-1H-inden-1-yl)benzamide]",1000 to 10000 nM
9,"CNNC(=N)c1nc(-c2cccc(C(=O)N[C@H]3CCc4ccccc43)c2)cnc1N [Example 719, 3-{5-amino-6-[imino(2-methylhydrazino)methyl]pyrazin-2-yl}-N-[(1S)-2,3-dihydro-1H-inden-1-yl)benzamide]",1000 to 10000 nM
10,"Cn1nc(-c2nc(-c3cccc(C(=O)N[C@H]4CCc5ccccc54)c3)cnc2N)nc1C1CCCN(C(=O)OCc2ccccc2)C1 (stereo partly drawn) [Example 721, phenylmethyl 3-{3-[3-amino-6-(3-{[(1S)-2,3-dihydro-1H-inden-1-ylamino]carbonyl}phenyl)pyrazin-2-yl]-1-methyl-1H-1,2,4-triazol-5-yl}piperidine-1-carboxylate]",≥ 10000 nM
11,"CCn1nc(-c2nc(-c3cccc(C(=O)N[C@H]4CCc5ccccc54)c3)cnc2N)nc1C1CCCN(C(=O)OCc2ccccc2)C1 (stereo partly drawn) [Example 722, phenylmethyl 3-{3-[3-amino-6-(3-{[(1S)-2,3-dihydro-1H-inden-1-ylamino]carbonyl}phenyl)pyrazin-2-yl]-1-ethyl-1H-1,2,4-triazol-5-yl}piperidine-1-carboxylate]",≥ 10000 nM
12,"Nc1ncc(-c2cccc(CN[C@H]3CCc4ccccc43)c2)nc1-c1nc(-c2ccncc2)n[nH]1 [Example 723, 5-(3-{[(1S)-2,3-dihydro-1H-inden-1-ylamino]methyl}phenyl)-3-(3-pyridin-4-yl-1H-1,2,4-triazol-5-yl)pyrazin-2-amine]",< 50 nM
